# Measurements published in patent US11752111B2, “Use of cannabidivarin in the treatment of autism spectrum disorder, associated disorders and schizophrenia” (GW Research Limited, priority 2016, dated 2023).
# Entries after “also recorded” stand apart in the source; their conditions may differ. Read-outs that look alike come from different tables or passages of the source.
# What was measured:
# PCP-treated rats = test: Novel object recognition test, sub-chronic PCP model of schizophrenia; type: in vivo, rat
# Description: Female hooded-Lister rats were used for this experiment. Rats were housed in groups of 5 under standard laboratory conditions under a 12 hr light: dark cycle, lights on at 0700 hr. Testing was carried out in the light phase.
# Rats were randomly assigned to two treatment groups and treated with vehicle, n=20 (distilled water, i.p.) or Phencyclidine hydrochloride (PCP), n=100 (2 mg/kg, i.p. twice daily for 7-days). PCP was dissolved in distilled water. This was followed by a 7-day wash out period before the rats were tested following acute treatment with CBDV, risperidone or vehicle.
# Risperidone (0.1 mg/kg) was dissolved in a minimum volume of acetic acid, made up to volume with distilled water and pH adjusted to 6 with 0.1M NaOH and administered via the i.p. route in a volume of 1 ml/kg, 60 min prior to testing.
# CBDV at 2, 10 or 20 mg/kg was dissolved in 2:1:17 (Ethanol:Cremofor:Saline 0.9%) and administered via the i.p. route in a volume of 5 ml/kg, 60 min prior to testing.
# Rats were allowed to habituate to the empty test box and the behavioural test room environment for 1h on day 1. Prior to behavioural testing on day 2 rats are given a further 3 min habituation.
# Following the 3 min habituation period, the rats are given two 3 min trials (T1 and T2) which are separated by a 1 min inter-trial interval in the home cage during which the objects are changed. Behaviour in all trials was recorded on video for subsequent blind scoring.
# In this trial, the animals are allowed to explore two identical objects (A1 and A2) for 3 min.
# In this trial, the animals explore a familiar object (A) from T1 and a novel object (B) for 3 min. The familiar object presented during T2 is a duplicate of the object presented in T1 in order to avoid any olfactory trails.
# The object exploration is defined by animals licking, sniffing or touching the object with the forepaws whilst sniffing, but not leaning against, turning around, standing or sitting on the object. The exploration time (s) of each object (A, B, familiar and novel) in each trial are recorded using two stopwatches and the following factors are calculated:
# Discrimination index (DI), which is calculated as shown below: […]
# Ube3am-/p+ (AS) mice = test: Audiogenic seizure susceptibility in Angelman syndrome model; type: in vivo, mouse
# Description: Heterozygous mice with maternal deficiency of Ube3A (Ube3am−/p+) and wild type (Ube3am+/p+) were purchased from The Jackson Laboratory (Jackson code: B6.129S7-Ube3a tm1Alb/J) and maintained in a C57BL/6 background.
# For the audiogenic seizure tests CBDV was administered at 20, 200 and 400 mg/kg.
# Seizure susceptibility: Audiogenic seizures were induced by vigorously scraping scissors across the metal grating of the cage lid which produces a 100 DB high frequency loud noise. This was done for 20 seconds. This test consists of 3 phases. In phase 1 all mice were tested for epilepsy. In phase 2 all mice were injected daily with either vehicle or a drug for 7 or 10 days. In phase 3 mice were tested for epilepsy (one hour after last injection).
# Fmr1 KO mice = test: Audiogenic seizure susceptibility, Fmr1 KO (FXS) mice; type: in vivo, mouse; settings: for audiogenic seizures: FXS mice PND21
# Description: This trait was evaluated in PND21 mice after acute administration of the compounds or its vehicle, 30 min before starting the procedure. To measure audiogenic seizure sensitivity mice were placed individually into a novel environment, a glass cylinder (40 cm high, 16 cm diameter) and allowed to explore for 1 min. Next, a bell (100 dB) was rung for 30 sec and seizure activity scored according to the following scale: no response, 0; wild running, 1; clonic seizure, 2; tonic seizure, 3; status epilepticus/respiratory arrest/death, 4.
# On postnatal day 21 (PND21) WT and Fmr1 KO mice were injected with CBDV (2, 10, 20 or 100 mg/kg) or vehicle, 30 min before exposure to a bell ring (100 dB). Mice exposed to this noise for 30 sec ceased from their normal exploratory behaviour and reacted with gradually to wild-running, clonic seizure, tonic seizure or death. The maximum response was annotated for each mouse as detailed in Table 2 below. A score was calculated according to the severity of the symptoms as explained in the Methods section.
# animal models of seizure = settings: in vivo; cited from earlier work
# MeCP2 KO mice = test: Novel Object Recognition test, short- and long-term memory, Rett syndrome model; type: in vivo, mouse
# Description: Furthermore, the efficacy of CBDV in reverting/attenuating the short- and long-term memory deficits present in these mice was evaluated. The Novel Object Recognition (NOR) test was performed before the starting of the treatment Post Natal Day 28 (PND 28), at PND 41 when the first motor symptoms appear and at PND 56 and 66 when the disease is fully manifested.
# At PND 28, 41, 56 and 66 the effect of CBDV on short- and long-term memory deficits was investigated through the Novel Object Recognition (NOR) test.
# The experimental apparatus used for the Novel Object Recognition test was an open-field box (43×43×32 cm) made of Plexiglas, placed in a dimly illuminated room. Animals performed each test individually.
# Briefly, each animal was placed in the arena and allowed to explore two identical previously unseen objects for 10 minutes (familiarization phase). After an inter-trial interval of 30 minutes and 24 hours one of the two familiar objects was replaced by a novel, previously unseen object and mice were returned to the arena for the 10-minute test phase.
# During the test phase the time spent exploring the familiar object (Ef) and the new object (En) was recorded separately by two observers blind to the groups and the discrimination index was calculated as follows: [(En−Ef)/(En+Ef)]×100.
# [1] = FXS (Fmr1 KO) PND21, CBDV 2 mg/kg acute, n = 5
# [2] = FXS (Fmr1 KO) PND21, CBDV 10 mg/kg acute, n = 5
# [3] = FXS (Fmr1 KO) PND21, CBDV 20 mg/kg acute, n = 5
# [4] = FXS (Fmr1 KO) PND21, CBDV 100 mg/kg acute, n = 5
smiles,measurement,setting,value
"C=C(C)[C@@H]1CCC(C)=C[C@H]1c1c(O)cc(CCC)cc1O [CBDV, Cannabidivarin]",discrimination index (DI) (FIG. 17),"PCP-treated rats; 10 and 20 mg/kg, PCP rats",statistically significant increase in the DI
same,time spent investigating two identical objects in Trial 1 (FIG. 16A),"PCP-treated rats; CBDV 2, 10 or 20 mg/kg i.p. 60 min prior to testing",no real preference
same,"discrimination between familiar and novel objects, Trial 2 (FIG. 16B)","PCP-treated rats; CBDV 10 and 20 mg/kg i.p., PCP treated rats",reverse the cognitive dysfunction
same,"seizure susceptibility, number of mice with seizures vs baseline (FIG. 15)","Ube3am-/p+ (AS) mice; 20 mg/kg or 200 mg/kg, 7 or 10 days treatment",no effect
same,number of mice with seizures (FIG. 15),Ube3am-/p+ (AS) mice; 400 mg/kg,statistically significant decrease
same,maximum response: No response (number of mice),Fmr1 KO mice,2
same,maximum response: Clonic seizure (number of mice),Fmr1 KO mice; [1],0
same,maximum response: Death (number of mice),Fmr1 KO mice; [1],0
same,maximum response: Tonic seizure (number of mice),Fmr1 KO mice; [1],2
same,maximum response: Wild running (number of mice),Fmr1 KO mice; [1],1
same,maximum response: Clonic seizure (number of mice),Fmr1 KO mice; [2],0
same,maximum response: Death (number of mice),Fmr1 KO mice; [2],0
same,maximum response: No response (number of mice),Fmr1 KO mice; [2],0
same,maximum response: Tonic seizure (number of mice),Fmr1 KO mice; [2],2
same,maximum response: Wild running (number of mice),Fmr1 KO mice; [2],3
same,maximum response: Clonic seizure (number of mice),Fmr1 KO mice; [3],0
same,maximum response: Death (number of mice),Fmr1 KO mice; [3],0
same,maximum response: No response (number of mice),Fmr1 KO mice; [3],2
same,maximum response: Tonic seizure (number of mice),Fmr1 KO mice; [3],2
same,maximum response: Wild running (number of mice),Fmr1 KO mice; [3],1
same,maximum response: Clonic seizure (number of mice),Fmr1 KO mice; [4],0
same,maximum response: Death (number of mice),Fmr1 KO mice; [4],0
same,maximum response: No response (number of mice),Fmr1 KO mice; [4],5
same,maximum response: Tonic seizure (number of mice),Fmr1 KO mice; [4],0
same,maximum response: Wild running (number of mice),Fmr1 KO mice; [4],0
same,audiogenic seizures,Fmr1 KO mice; acute 100 mg/kg,remained seizure free; also recorded: completely eliminate the seizures
same,audiogenic seizures,"Fmr1 KO mice; acute lower doses (2, 10, 20 mg/kg)",experienced seizures of varying severity
same,efficacy in animal models of seizure,animal models of seizure,effective
same,long-term memory in the NOR test (FIG. 10),"MeCP2 KO mice; 2, 20 and 200 mg/kg, 24 hours inter-trial interval, KO mice",significantly counteract the cognitive impairment
same,short-term memory in the NOR test (FIG. 9),"MeCP2 KO mice; 2, 20 and 200 mg/kg, each time point (PND 41, 56, 66), 30 min inter-trial interval, KO mice",significantly reverted the cognitive impairment
same,long-term recognition memory in the NOR test (FIG. 10),MeCP2 KO mice; WT littermates,without affecting recognition memory
same,short-term recognition memory in the NOR test (FIG. 9),MeCP2 KO mice; WT littermates,without affecting recognition memory
